# Experimental data published in article PMC3306279, “Evaluation of an Antimicrobial L-Amino Acid Oxidase and Peptide Derivatives from Bothropoides mattogrosensis Pitviper Venom” (PLoS ONE, 2012).
# Ends that are not written are not given here.
# Tests used:
# Type in all cases: cell-based
# human erythrocytes = experiment: Hemolysis assay; settings: for haemolysis: even at higher concentrations; for Cytotoxicity, Hemolysis assay: sample 512 µg.mL^−1, 24 h by the footnote (method: 1 h, 37°C), relative to 0.1% triton X-100, OD 540 nm, mean ± S.D., three independent experiments
# Method: Human heparine-blood was obtained from the Universidade Católica de Brasilia cell collection. Collection was obtained with written informed consent. Heparine blood cells were centrifuged at 800 g for 10 min. The erythrocytes were washed three times and re-suspended in 0.1% PBS, pH 7.4. […] The positive control was 0.1% triton X-100 (Sigma-Aldrich, USA). The samples were then centrifuged at 800 g for 10 min. The optical density at 540 nm of the supernatant was measured. The relative optical density compared to that of the suspension treated with 0.1% triton X-100 defined hemolysis percent.
# [1] = system: RAW 264.7 murine macrophage-like cells; experiment: Cell cytotoxicity, MTT assay; settings: for Cytotoxicity, MTT assay: RAW264.7 cells, sample 512 µg.mL^−1, 24 h, mean ± S.D., three independent experiments; for cell viability: RAW264.7, even at higher concentrations
# Method: Sterile filtered MTT (3-(4,5-dimethylthiazolyl)-2,5-diphenyl-tetrazoliumbromide; Sigma-Aldrich, USA) solution (5 mg.mL^−1 in PBS) was dark stored at −20°C. RAW 264.7 murine macrophage-like cells, 1×10^5 cells/well was seeded in 96 well plates (TPP, Switzerland), in supplemented DMEM medium (4 mM glutamine, 10% FCS and 100 units.ml^−1 penicillin/streptomycin) containing multiple treatments. Treatments consisted of fractions F-44, F-51, F-68, BmLAO (0–512 µg.mL^−1) and fragments BmLAO-f1, BmLAO-f2 and BmLAO-f3 at different concentrations (0–500 µM). After overnight incubation, 60% of medium was then removed, and 10 µl of the MTT solution was added to each well; the plates were then incubated for 4 h in the presence of 5% CO2 at 37°C. The blue formazan product generated was dissolved by the addition of 100 µl of 100% DMSO (Mallinckrodt Chemical) per well. The plates were then gently swirled for 5 min at room temperature in order to dissolve the precipitate. The absorbance was monitored at 575 nm in a Biotek Powerwave HT microplate spectrophotometer (Bio-Tek Instruments, USA).
# [2] = system: Pseudomonas aeruginosa (ATCC15442); experiment: MIC determination, broth dilution; settings: fragments, first figure of the cell (µM/µg.mL^−1); Mueller-Hinton broth, 37°C, 12 h; 100% growth inhibition
# Method: (§1) The minimal inhibitory concentration (MIC) was determined using a standardized dilution method according to NCSLA guidelines. Overnight colonies of Bacillus subtilis (ATCC 6633), Enterococcus faecalis (ATCC 12953), Staphylococcus aureus (ATCC29213), Streptococcus pyogenes (ATCC19615), Escherichia coli (ATCC8739), Klebsiella pneumonia (ATCC13885), Proteus mirabilis (ATCC25933), Pseudomonas aeruginosa ATCC 15442 and Salmonella typhimurium (ATCC14028) were suspended to a turbidity of 0.5 units and further diluted in Mueller-Hinton broth (MH) (Himedia - India). […] Ten microliters of each concentration was added to each corresponding well of a 96-well plate (TPP, Switzerland) and 1×10^5 bacteria in the volume of 90 µL. The plate was incubated at 37°C for 12 h.
# [3] = system: Salmonella typhimurium (ATCC14028); experiment: MIC determination, broth dilution; settings: fragments, first figure of the cell (µM/µg.mL^−1); Mueller-Hinton broth, 37°C, 12 h; 100% growth inhibition
# Method: as §1
# [4] = system: Klebsiella pneumoniae (ATCC13885); experiment: MIC determination, broth dilution; settings: fragments, first figure of the cell (µM/µg.mL^−1); Mueller-Hinton broth, 37°C, 12 h; 100% growth inhibition
# Method: as §1
# [5] = system: Enterococcus faecalis (ATCC 12953); experiment: MIC determination, broth dilution; settings: fragments, first figure of the cell (µM/µg.mL^−1); Mueller-Hinton broth, 37°C, 12 h; 100% growth inhibition
# Method: as §1
# [6] = system: Staphylococcus aureus (ATCC29213); experiment: MIC determination, broth dilution; settings: fragments, first figure of the cell (µM/µg.mL^−1); Mueller-Hinton broth, 37°C, 12 h; 100% growth inhibition
# Method: as §1
# [7] = system: Streptococcus pyogenes (ATCC19615); experiment: MIC determination, broth dilution; settings: fragments, first figure of the cell (µM/µg.mL^−1); Mueller-Hinton broth, 37°C, 12 h; 100% growth inhibition
# Method: as §1
# [8] = system: Proteus mirabilis (ATCC25933); experiment: MIC determination, broth dilution; settings: fragments, first figure of the cell (µM/µg.mL^−1); Mueller-Hinton broth, 37°C, 12 h; 100% growth inhibition
# Method: as §1
# [9] = system: Escherichia coli (ATCC8739); experiment: MIC determination, broth dilution; settings: fragments, first figure of the cell (µM/µg.mL^−1); Mueller-Hinton broth, 37°C, 12 h; 100% growth inhibition
# Method: as §1
# [10] = system: Bacillus subtilis (ATCC 6633); experiment: MIC determination, broth dilution; settings: fragments, first figure of the cell (µM/µg.mL^−1); Mueller-Hinton broth, 37°C, 12 h; 100% growth inhibition
# Method: as §1
Substance,haemolysis (human erythrocytes),"Cytotoxicity, Hemolysis assay (human erythrocytes)","Cytotoxicity, MTT assay [1]",MIC [2] [µM],MIC [3] [µM],MIC [4] [µM],MIC [5] [µM],MIC [6] [µM],MIC [7] [µM],MIC [8] [µM],MIC [9] [µM],MIC [10] [µM],cell viability [1]
IKFEPPLPPKKAH-NH2 [BmLAO-f1],less than 25%,13.75±3.6 % of control,21.0±3.5 % of control,22,43,22,43,43,43,43,22,43,
IYYPPNHNFP-NH2 [BmLAO-f3],less than 25%,9.87±3.1 % of control,11.2±2.1 % of control,220,220,110,110,220,110,110,220,220,over 78%
KKFWEDDG-NH2 [BmLAO-f2],less than 25%,11.32±2.9 % of control,13.6±4.5 % of control,250,,125,125,250,125,125,250,250,over 78%
